Source: ChEMBL document CHEMBL4033665, “Synthesis and applications of benzohydroxamic acid-based histone deacetylase inhibitors” (Eur J Med Chem, 2017)
Blank lines part the entries; values can stand above or below the molecule they belong to.

Assays:
Histone deacetylase 1 [1] = target: T1, Histone deacetylase 1 (Homo sapiens, UniProt Q13547); experiment: Inhibition of HDAC1 (unknown origin)
Histone deacetylase 2 [2] = target: T2, Histone deacetylase 2 (Homo sapiens, UniProt Q92769); experiment: Inhibition of HDAC2 (unknown origin)
T2 sequence (Q92769 whole entry): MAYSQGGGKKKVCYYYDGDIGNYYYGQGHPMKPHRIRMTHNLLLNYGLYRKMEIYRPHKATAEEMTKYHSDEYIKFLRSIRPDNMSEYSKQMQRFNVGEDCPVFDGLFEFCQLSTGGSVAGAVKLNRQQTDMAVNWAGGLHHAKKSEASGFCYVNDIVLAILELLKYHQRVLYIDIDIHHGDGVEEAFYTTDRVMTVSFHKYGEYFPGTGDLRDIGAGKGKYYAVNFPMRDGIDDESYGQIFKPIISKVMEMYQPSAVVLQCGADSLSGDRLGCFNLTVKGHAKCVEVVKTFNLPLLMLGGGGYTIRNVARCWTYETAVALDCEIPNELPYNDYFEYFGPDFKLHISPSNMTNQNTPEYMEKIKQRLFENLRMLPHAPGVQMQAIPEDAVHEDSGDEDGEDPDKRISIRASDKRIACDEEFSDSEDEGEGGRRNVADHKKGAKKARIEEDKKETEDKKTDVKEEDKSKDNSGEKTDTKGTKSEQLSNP

Histone deacetylase 3 [3] = target: T3, Histone deacetylase 3 (Homo sapiens, UniProt O15379); experiment: Inhibition of HDAC3 (unknown origin)
T3 sequence (O15379 whole entry): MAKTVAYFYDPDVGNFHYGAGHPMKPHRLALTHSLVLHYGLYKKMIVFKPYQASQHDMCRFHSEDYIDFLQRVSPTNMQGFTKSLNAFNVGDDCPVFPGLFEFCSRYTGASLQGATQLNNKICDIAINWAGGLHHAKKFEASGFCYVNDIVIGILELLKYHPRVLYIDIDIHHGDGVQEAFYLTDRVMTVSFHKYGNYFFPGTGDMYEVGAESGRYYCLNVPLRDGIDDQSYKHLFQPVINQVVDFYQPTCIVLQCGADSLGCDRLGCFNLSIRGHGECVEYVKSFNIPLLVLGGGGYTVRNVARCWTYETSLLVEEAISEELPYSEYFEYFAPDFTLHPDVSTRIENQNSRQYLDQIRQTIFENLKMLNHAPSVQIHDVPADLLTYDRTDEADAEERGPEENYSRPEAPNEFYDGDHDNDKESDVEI

Histone deacetylase 4 [4] = target: T4, Histone deacetylase 4 (Homo sapiens, UniProt P56524); experiment: Inhibition of HDAC4 (unknown origin)
T4 sequence (P56524 whole entry): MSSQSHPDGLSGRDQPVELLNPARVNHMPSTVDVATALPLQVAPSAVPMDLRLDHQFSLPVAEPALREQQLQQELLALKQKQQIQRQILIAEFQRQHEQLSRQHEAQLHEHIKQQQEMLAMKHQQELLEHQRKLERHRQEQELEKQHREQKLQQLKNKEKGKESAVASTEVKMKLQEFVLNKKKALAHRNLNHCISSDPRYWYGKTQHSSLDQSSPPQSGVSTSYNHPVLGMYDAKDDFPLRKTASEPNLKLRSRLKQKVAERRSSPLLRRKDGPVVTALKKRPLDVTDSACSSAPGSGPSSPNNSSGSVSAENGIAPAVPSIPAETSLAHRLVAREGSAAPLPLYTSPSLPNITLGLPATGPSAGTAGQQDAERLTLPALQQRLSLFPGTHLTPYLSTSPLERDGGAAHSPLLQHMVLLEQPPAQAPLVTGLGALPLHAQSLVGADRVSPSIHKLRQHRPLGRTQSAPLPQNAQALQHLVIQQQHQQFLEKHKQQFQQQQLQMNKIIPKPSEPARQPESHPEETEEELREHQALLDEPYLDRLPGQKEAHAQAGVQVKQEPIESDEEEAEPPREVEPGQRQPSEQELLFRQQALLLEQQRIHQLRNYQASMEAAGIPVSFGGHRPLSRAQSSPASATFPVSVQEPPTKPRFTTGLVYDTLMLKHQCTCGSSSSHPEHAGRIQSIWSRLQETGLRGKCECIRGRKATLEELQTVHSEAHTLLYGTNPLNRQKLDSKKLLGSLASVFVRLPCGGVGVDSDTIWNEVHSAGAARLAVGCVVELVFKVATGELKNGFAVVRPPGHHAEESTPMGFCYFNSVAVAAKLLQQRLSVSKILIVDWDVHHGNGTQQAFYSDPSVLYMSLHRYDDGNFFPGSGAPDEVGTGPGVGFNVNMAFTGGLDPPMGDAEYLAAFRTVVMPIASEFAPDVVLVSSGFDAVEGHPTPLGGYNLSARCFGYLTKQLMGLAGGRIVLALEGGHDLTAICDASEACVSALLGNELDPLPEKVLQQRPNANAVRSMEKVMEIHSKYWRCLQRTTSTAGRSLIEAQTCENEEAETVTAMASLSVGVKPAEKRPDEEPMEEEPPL

Histone deacetylase 5 [5] = target: T5, Histone deacetylase 5 (Homo sapiens, UniProt Q9UQL6); experiment: Inhibition of HDAC5 (unknown origin)
T5 sequence (Q9UQL6 whole entry): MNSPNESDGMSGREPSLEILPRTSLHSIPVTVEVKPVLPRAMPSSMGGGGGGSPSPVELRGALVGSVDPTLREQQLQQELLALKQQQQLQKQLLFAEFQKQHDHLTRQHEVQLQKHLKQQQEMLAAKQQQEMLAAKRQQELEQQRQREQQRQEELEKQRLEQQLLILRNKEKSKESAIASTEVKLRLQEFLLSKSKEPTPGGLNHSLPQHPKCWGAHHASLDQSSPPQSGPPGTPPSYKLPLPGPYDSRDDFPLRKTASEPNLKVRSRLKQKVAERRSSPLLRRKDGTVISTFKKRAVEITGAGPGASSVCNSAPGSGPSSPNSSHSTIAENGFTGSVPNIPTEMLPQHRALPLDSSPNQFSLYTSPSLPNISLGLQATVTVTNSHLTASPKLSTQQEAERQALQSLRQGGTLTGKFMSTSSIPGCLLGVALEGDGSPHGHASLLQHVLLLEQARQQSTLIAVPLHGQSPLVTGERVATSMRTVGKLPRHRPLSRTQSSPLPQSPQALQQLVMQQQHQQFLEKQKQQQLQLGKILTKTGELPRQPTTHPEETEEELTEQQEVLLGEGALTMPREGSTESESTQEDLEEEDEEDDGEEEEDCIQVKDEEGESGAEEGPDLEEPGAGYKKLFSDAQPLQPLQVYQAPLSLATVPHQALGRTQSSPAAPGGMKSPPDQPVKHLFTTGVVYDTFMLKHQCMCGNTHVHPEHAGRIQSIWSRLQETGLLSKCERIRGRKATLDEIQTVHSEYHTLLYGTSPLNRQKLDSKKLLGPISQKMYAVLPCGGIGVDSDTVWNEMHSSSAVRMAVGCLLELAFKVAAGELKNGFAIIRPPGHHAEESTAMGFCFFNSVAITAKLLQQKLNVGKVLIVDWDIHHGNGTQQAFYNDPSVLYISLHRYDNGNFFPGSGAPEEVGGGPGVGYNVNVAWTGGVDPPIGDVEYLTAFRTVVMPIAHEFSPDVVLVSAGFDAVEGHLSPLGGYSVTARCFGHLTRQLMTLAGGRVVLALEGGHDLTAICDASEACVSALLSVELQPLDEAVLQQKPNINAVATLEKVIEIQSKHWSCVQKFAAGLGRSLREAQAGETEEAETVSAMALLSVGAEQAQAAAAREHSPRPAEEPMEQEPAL

[6] = target: T6, Protein deacetylase HDAC6 (Homo sapiens, UniProt Q9UBN7); experiment: Inhibition of HDAC6 (unknown origin)
T6 sequence (Q9UBN7 whole entry): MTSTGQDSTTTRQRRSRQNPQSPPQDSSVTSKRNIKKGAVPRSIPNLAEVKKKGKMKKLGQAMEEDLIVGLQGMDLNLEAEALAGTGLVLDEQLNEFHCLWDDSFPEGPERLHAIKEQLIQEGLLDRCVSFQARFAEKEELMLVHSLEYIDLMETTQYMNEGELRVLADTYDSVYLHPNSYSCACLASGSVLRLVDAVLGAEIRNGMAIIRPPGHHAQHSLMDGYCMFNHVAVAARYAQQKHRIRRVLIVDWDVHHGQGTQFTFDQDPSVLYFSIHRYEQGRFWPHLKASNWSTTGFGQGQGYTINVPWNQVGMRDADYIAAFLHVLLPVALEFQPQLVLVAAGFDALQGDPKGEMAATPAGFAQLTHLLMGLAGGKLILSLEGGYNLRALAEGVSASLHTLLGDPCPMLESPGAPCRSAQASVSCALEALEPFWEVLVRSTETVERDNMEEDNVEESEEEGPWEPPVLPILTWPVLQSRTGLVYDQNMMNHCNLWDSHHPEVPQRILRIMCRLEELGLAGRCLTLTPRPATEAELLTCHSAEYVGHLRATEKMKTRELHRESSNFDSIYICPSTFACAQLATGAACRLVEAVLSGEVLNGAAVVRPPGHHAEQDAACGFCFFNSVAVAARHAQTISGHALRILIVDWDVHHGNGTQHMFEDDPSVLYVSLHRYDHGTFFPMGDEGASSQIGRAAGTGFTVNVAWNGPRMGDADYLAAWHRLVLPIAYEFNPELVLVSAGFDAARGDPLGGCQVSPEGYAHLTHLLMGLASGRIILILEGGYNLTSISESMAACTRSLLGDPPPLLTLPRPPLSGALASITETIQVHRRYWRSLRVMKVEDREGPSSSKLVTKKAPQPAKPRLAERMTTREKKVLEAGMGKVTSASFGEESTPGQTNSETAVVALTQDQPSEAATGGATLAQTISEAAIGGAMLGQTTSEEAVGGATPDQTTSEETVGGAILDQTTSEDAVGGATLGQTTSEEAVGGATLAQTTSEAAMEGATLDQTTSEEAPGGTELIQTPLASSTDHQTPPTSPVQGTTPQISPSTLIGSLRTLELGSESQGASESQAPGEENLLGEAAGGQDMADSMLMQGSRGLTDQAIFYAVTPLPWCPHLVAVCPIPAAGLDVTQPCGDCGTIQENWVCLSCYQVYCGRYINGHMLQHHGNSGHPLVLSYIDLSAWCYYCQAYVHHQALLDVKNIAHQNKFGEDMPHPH

Histone deacetylase 8 [7] = target: T7, Histone deacetylase 8 (Homo sapiens, UniProt Q9BY41); experiment: Inhibition of HDAC8 (unknown origin)
T7 sequence (Q9BY41 whole entry): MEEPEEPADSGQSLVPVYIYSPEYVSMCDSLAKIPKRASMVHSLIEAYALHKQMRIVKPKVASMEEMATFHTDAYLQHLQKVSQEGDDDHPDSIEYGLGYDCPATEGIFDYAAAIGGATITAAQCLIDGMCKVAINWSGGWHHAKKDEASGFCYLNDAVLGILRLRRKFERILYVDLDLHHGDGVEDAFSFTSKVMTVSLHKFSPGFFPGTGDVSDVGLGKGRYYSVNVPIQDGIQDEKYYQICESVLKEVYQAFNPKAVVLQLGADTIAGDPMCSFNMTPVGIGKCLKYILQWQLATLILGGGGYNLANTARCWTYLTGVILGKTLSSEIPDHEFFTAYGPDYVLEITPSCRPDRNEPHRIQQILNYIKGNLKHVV

Histone deacetylase 9 = Histone deacetylase 9 (Homo sapiens, UniProt Q9UKV0); experiment: Inhibition of HDAC9 (unknown origin)
Chain of Histone deacetylase 9 (Q9UKV0 whole entry): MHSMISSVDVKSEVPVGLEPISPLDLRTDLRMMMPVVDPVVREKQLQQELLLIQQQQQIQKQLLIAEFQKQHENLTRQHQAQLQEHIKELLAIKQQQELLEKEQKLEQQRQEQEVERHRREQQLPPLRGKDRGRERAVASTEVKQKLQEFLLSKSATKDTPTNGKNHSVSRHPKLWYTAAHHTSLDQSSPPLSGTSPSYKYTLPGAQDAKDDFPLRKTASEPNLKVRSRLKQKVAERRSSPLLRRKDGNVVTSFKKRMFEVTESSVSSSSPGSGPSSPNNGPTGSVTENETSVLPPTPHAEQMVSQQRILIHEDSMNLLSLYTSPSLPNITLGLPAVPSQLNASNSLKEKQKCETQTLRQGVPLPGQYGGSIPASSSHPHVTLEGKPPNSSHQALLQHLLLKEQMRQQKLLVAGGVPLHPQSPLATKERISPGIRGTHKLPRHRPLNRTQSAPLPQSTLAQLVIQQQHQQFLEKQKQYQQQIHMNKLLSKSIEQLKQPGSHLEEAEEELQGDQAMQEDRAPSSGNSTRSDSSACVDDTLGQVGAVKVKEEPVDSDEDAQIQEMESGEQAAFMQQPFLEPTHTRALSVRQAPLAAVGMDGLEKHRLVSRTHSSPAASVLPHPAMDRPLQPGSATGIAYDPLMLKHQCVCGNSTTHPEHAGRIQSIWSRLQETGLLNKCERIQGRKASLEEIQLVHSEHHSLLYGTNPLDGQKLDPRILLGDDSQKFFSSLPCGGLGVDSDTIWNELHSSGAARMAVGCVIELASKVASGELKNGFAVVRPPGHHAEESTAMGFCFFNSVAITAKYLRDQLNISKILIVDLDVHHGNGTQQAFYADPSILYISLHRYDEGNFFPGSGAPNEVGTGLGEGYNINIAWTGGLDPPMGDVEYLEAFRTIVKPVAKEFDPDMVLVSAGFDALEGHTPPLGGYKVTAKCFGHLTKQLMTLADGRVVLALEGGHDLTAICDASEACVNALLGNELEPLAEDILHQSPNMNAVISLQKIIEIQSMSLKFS

[8] = target: T8, Polyamine deacetylase HDAC10 (Homo sapiens, UniProt Q969S8); experiment: Inhibition of HDAC10 (unknown origin)
T8 sequence (Q969S8 whole entry): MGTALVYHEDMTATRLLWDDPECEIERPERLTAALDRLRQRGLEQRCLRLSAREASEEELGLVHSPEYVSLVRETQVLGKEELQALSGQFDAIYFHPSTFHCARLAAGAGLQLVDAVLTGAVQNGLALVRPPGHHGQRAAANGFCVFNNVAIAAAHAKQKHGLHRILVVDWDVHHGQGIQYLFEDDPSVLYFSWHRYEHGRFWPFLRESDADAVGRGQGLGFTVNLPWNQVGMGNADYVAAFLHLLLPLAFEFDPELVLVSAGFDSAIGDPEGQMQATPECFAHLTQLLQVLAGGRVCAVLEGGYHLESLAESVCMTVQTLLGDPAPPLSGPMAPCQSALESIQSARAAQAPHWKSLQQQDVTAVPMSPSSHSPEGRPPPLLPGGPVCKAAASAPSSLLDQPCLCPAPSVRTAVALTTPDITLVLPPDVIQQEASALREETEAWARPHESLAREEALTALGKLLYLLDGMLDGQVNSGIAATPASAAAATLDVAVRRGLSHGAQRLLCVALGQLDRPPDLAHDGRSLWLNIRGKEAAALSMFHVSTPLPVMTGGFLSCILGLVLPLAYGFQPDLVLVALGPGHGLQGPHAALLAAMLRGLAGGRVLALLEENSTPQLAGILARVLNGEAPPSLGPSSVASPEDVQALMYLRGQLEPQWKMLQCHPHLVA

Histone deacetylase 11 = target: T9, Histone deacetylase 11 (Homo sapiens, UniProt Q96DB2); experiment: Inhibition of HDAC11 (unknown origin)
T9 sequence (Q96DB2 whole entry): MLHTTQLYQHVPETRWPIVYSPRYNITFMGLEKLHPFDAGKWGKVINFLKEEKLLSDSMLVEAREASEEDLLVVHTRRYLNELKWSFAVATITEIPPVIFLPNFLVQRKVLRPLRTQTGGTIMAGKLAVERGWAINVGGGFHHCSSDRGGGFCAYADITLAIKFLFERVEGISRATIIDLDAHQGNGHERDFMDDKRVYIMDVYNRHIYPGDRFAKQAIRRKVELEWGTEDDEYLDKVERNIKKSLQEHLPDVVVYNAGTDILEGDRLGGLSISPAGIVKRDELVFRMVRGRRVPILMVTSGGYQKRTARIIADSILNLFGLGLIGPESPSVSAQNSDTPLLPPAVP

Histone deacetylase 2 [9] = target: T2, Histone deacetylase 2; experiment: Inhibition of human HDAC2 after 15 mins by trypsin-coupled fluorescence assay
Histone deacetylase 7 = target: T10, Histone deacetylase 7 (Homo sapiens, UniProt Q8WUI4); experiment: Inhibition of HDAC7 (unknown origin)
T10 sequence (Q8WUI4 whole entry): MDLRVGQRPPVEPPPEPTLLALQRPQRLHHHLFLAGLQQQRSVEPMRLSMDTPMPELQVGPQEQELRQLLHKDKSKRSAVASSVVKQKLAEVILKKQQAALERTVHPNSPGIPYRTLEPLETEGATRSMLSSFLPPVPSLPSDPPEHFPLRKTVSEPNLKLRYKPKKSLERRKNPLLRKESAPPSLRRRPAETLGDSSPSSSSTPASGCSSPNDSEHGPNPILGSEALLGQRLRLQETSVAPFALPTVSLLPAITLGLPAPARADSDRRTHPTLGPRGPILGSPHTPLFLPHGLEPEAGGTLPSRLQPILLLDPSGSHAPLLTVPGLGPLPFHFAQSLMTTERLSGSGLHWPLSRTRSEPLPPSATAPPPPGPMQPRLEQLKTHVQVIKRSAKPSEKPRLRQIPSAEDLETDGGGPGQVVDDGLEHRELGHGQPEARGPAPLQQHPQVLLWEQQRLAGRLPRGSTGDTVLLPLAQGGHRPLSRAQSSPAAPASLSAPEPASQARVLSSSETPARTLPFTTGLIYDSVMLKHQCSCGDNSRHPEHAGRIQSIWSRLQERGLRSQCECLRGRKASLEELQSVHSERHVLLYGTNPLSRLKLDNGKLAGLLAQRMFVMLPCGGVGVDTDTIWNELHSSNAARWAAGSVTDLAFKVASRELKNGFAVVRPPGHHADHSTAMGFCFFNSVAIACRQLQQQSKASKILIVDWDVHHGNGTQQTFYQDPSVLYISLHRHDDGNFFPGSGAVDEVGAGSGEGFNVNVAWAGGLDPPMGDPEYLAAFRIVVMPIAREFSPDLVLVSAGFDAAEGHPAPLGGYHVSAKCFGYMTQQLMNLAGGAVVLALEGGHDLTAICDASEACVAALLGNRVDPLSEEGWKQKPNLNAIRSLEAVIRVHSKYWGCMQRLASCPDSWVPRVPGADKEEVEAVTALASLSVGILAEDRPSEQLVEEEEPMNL

Histone deacetylase 1 [10] = target: T1, Histone deacetylase 1; experiment: Inhibition of human HDAC1 using RHKKAc as substrate by fluorescence assay
Histone deacetylase 2 [11] = target: T2, Histone deacetylase 2; experiment: Inhibition of human HDAC2 using RHKKAc as substrate by fluorescence assay
Histone deacetylase 4 [12] = target: T4, Histone deacetylase 4; experiment: Inhibition of human HDAC4 using RHKKAc as substrate by fluorescence assay
Histone deacetylase 5 [13] = target: T5, Histone deacetylase 5; experiment: Inhibition of human HDAC5 using RHKKAc as substrate by fluorescence assay
[14] = target: T6, Protein deacetylase HDAC6; experiment: Inhibition of human HDAC6 using RHKKAc as substrate by fluorescence assay
Histone deacetylase 8 [15] = target: T7, Histone deacetylase 8; experiment: Inhibition of human HDAC8 using RHKKAc as substrate by fluorescence assay
[16] = target: T8, Polyamine deacetylase HDAC10; experiment: Inhibition of human HDAC10 using RHKKAc as substrate by fluorescence assay
Histone deacetylase 1 [17] = target: T1, Histone deacetylase 1; experiment: Inhibition of C-terminal GST-tagged full length human HDAC1 expressed in baculovirus expression system in Sf9 cells using AMC-labeled RHKKAc as substrate after 2 hrs by fluorescence assay
Histone deacetylase 3 [18] = target: T3, Histone deacetylase 3; experiment: Inhibition of C-terminal His-tagged full length human HDAC3 expressed in baculovirus expression system using AMC-labeled RHKKAc as substrate after 2 hrs by fluorescence assay
[19] = target: T6, Protein deacetylase HDAC6; experiment: Inhibition of N-terminal GST-tagged full length human HDAC6 expressed in baculovirus expression system in Sf9 cells using AMC-labeled RHKKAc as substrate after 2 hrs by fluorescence assay
[20] = Inhibition of maize HD2; design: species or system Zea mays
Histone deacetylase HD1B = Histone deacetylase HD1B (Zea mays, UniProt Q9ZTP8); experiment: Inhibition of maize HD1B
Chain of Histone deacetylase HD1B (Q9ZTP8 whole entry): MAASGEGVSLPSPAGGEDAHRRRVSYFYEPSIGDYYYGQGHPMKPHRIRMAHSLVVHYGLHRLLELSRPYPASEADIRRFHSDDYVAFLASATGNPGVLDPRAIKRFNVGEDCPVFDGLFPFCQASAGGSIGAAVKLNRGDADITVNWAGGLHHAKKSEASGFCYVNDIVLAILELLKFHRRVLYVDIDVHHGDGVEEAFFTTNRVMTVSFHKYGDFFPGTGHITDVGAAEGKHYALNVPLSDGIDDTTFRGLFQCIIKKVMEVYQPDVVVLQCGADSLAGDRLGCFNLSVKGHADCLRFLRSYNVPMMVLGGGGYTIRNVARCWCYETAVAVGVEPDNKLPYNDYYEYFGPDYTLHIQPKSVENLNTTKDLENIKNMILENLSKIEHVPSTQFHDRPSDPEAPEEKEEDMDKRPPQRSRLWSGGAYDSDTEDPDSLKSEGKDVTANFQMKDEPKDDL

[21] = Inhibition of maize HD1A; design: species or system Zea mays

T1 sequence (Q13547 whole entry): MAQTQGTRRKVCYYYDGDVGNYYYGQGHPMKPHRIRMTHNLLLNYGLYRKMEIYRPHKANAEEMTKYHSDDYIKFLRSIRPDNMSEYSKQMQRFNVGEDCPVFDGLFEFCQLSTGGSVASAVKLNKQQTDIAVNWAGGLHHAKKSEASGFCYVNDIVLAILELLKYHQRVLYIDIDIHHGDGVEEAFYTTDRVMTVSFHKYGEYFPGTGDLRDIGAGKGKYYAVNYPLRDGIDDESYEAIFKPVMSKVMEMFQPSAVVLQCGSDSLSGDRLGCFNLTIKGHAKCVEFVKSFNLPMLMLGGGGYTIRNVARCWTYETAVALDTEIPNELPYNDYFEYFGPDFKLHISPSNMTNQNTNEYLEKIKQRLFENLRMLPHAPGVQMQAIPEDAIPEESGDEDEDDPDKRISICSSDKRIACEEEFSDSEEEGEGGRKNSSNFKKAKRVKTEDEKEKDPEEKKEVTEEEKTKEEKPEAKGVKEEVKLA

Structure (SMILES): O=C(NO)c1ccc(CN2c3ccccc3S(=O)(=O)C[C@H]3CCCC[C@H]32)cc1
IC50 (Histone deacetylase 1 [1]): 8.1 µM | IC50 (Histone deacetylase 2 [2]): 24 µM | IC50 (Histone deacetylase 3 [3]): 24 µM | IC50 (Histone deacetylase 4 [4]): > 30 µM | IC50 (Histone deacetylase 5 [5]): 9.1 µM | IC50 [6]: 0.008 µM | IC50 (Histone deacetylase 8 [7]): 1.1 µM | IC50 (Histone deacetylase 9): 13 µM | IC50 [8]: 10 µM | IC50 (Histone deacetylase 11): 2.4 µM

Structure (SMILES): O=C(NO)c1ccc(NCc2csc3ccc(Br)cc23)cc1
IC50 (Histone deacetylase 1 [1]): > 10 µM | IC50 (Histone deacetylase 3 [3]): > 10 µM | IC50 (Histone deacetylase 7): > 10 µM

Structure (SMILES): Cc1nc2ccccc2n1Cc1ccc(C(=O)NO)cc1F
IC50 (Histone deacetylase 2 [2]): 20.3 µM | IC50 (Histone deacetylase 3 [3]): 12.5 µM | IC50 (Histone deacetylase 4 [4]): 0.5 µM | IC50 (Histone deacetylase 5 [5]): 0.2 µM | IC50 [6]: 0.0008 µM | IC50 (Histone deacetylase 8 [7]): 0.2 µM | IC50 [8]: 20.4 µM | IC50 (Histone deacetylase 11): 12.9 µM

Further lines, results first:

IC50 (Histone deacetylase 2 [9]): 4.4 µM
Structure (SMILES): O=C(NO)c1ccc(CC(=O)N(CCO)c2ccccc2)cc1

IC50 (Histone deacetylase 1 [10]): 3.62 µM | IC50 (Histone deacetylase 2 [11]): 7.45 µM | IC50 (Histone deacetylase 4 [12]): 3.82 µM | IC50 (Histone deacetylase 5 [13]): 1.57 µM | IC50 [14]: 0.004 µM | IC50 (Histone deacetylase 8 [15]): 0.25 µM | IC50 [16]: 10.5 µM
Structure (SMILES): CN1C(=O)C2CN(Cc3c2c2ccccc2n3Cc2ccc(C(=O)NO)cc2)C1=O (stereo not given)

IC50 (Histone deacetylase 1 [17]): 0.07 µM | IC50 (Histone deacetylase 3 [18]): 0.08 µM | IC50 [19]: 0.002 µM
Structure (SMILES): COc1ccc(-c2cc(-c3ccoc3)c(C(=O)NCc3ccc(C(=O)NO)cc3)[nH]2)cc1

IC50 [20]: 0.0075 to 0.016 µM | IC50 (Histone deacetylase HD1B): 0.0075 to 0.016 µM | IC50 [21]: 0.0075 to 0.016 µM
Structure (SMILES): CCN(CC)Cc1ccc2cc(COC(=O)Nc3ccc(C(=O)NO)cc3)ccc2c1 [GIVINOSTAT]
